Test results published in US20260027123A1, “Compositions for Modulating Lipoxygenase and Methods of Using Same” (The Regents of the University of California, priority 2022, published 2026).
“And” between values parts separate entries of the source, which are not always exact repeats. Equal values may be shown once.

How the values were obtained:
Type in all cases: physicochemical
[1] = Absorbance spectrometry at 340 nm to characterize solubility in each solvent mixture (measured concentration); conditions: Table 2
Protocol: (§1) Compositions were generally prepared by mixing with solvent and sonicated at room temperature in a water bath for 10 minutes. After a 15 minute waiting period at room temperature, the composition was sonicated again for 15 minutes at room temperature. Table 1 provides a list of formulations prepared for Compound 27332 according to certain embodiments. Table 2 provides a list of formulations prepared for 5-(methylamino)-2-naphthalen-1-yl-1,3-oxazole-4-carbonitrile (Compound ML351) according to certain embodiments. Compositions were analyzed by absorbance spectrometry at 340 nm to characterize the solubility of the compounds in each solvent mixture. Measurements were taken using a Cary60 spectrophotometer. Briefly, 2 ml absolute EtOH was added to cuvette, and instrument blanked. Then 2 μl of the excipient buffer was added, and scanned from 450 nm to 200 nm in order to confirm no large/interfering peak at 340 nm. Next, 2 μl of […] (in absolute EtOH) was added to the cuvette and scanned (450 nm to 200 nm)—this was repeated twice more for a total of three measurements. The difference in Abs(340) was determined for each subsequent addition. These three measurements were used to calculate the concentration (in molarity) using previously determined epsilon, and converted back to mg/ml.

[2] = Soluble after 24 hours at room temperature; conditions: Table 2, 20/80 DMA/PEG400
[3] = Compositions prepared by mixing with solvent and sonication; soluble yes/no; conditions: Table 2
Protocol: as §1

[4] = Viscosity of the composition; conditions: Table 2
[5] = 20/80 DMA/PEG400, Approx Conc. 50 mg/ml
[6] = 20/80 DMA/PEG400, Approx Conc. 78.1 mg/ml
[7] = 20/80 DMA/PEG400, Approx Conc. 90.5 mg/ml
[8] = 20/80 Diethylacetamide/PEG400, Approx Conc. 50 mg/ml
[9] = Intralipid, Approx Conc. 0.250 mg/ml

In the case of CNc1oc(-c2cccc3ccccc23)nc1C#N [ML351, 5-(methylamino)-2-naphthalen-1-yl-1,3-oxazole-4-carbonitrile], the “Measured Conc.” value [1, 5] is reported as 46.1 mg/mL, the “Measured Conc.” value [1, 6] is reported as 75.7 mg/mL and the “Measured Conc.” value [1, 7] is reported as 66.3 mg/mL and 54.9 mg/mL. For the same compound, the “Measured Conc.” value [1, 8] was 52.5 mg/mL and 45.5 mg/mL, the “Measured Conc.” value [1, 9] was 0.315 mg/mL and the “Soluble after 24 hours at Room Temperature” value ([2]; Approx Conc. 50 mg/ml) was “yes”. The “Soluble after 24 hours at Room Temperature” value ([2]; Approx Conc. 78.1 mg/ml) was “yes”, the Soluble [3, 5] was “yes” and the Soluble [3, 6] was “yes”. For the same compound, the Soluble [3, 7] was “No”, the Soluble [3, 8] was “yes” and the Soluble [3, 9] was “yes”. For the same compound, the Viscosity [4, 5] was “low”, the Viscosity [4, 6] was “low” and the Viscosity [4, 7] was “low”. For the same compound, the Viscosity [4, 8] was “low” and the Viscosity [4, 9] was “low”.
